Reference: patent US5380727A, “Synergistic combination for treating herpes infections” (Bio-Mega, Inc., priority 1990, dated 1995)

System: HSV-2 (strain HG-52)
Test: Inhibition of HSV-2 replication in BHK-21/C13 cell culture (viral titer by neutral red colorimetric assay)
Type: cell-based
Conditions: Human alphaherpesvirus 2, BHK21 (C13); agent alone; HSV-2 strain HG-52 in BHK-21/C13 cells, 29 h incubation; read-out: IC50 (concentration causing 50% inhibition of virus replication)
Procedure: BHK-21/C13 cells (ATCC CCL 10) are incubated for two days in 150 cm^2 T-flasks (1.5×10^6 cells/flask) with alpha-MEM medium (Gibco Canada Inc., Burlington, Ontario, Canada) supplemented with 8% (v/v) fetal bovine serum (FBS, Gibco Canada Inc.). The cells are trypsinized and then transferred to fresh media in a 24 well plate to give 2.5×10^5 cells in 750 μL of media per well. The cells are incubated at 37° C. for a period of 6 hours to allow them to adhere to the plate. Thereafter, the cells are washed once with 500 μL of alpha-MEM supplemented with 0.5% (v/v) FBS and then incubated with 750 μL of the same media (low serum) for 3 days. After this period of serum starvation, the low serum medium is removed and the cells are incubated in 500 μL of BBMT for 2 to 3 hours. [BBMT medium is described by P. Brazeau et al., Proc. Natl. Acad. Sci. USA, 79, 7909 (1982).] Thereafter, the cells are infected with HSV-2 (multiplicity of infection=0.02 PFU/cell) in 100 μL of BBMT medium. […]
On completion of the above 2 hour incubation of the BHK-21/C13 cells, the media is replaced with alpha-MEM medium supplemented with 3% (v/v) FBS. The cells are now ready to be infected with the various sample dilutions of virus. […]

For Nc1nc2c(ncn2COCCO)c(=O)[nH]1 [acyclovir, 9-[(2-hydroxyethoxy)methyl]guanine], the IC50 was 4 µM.
